Experimental data taken from patent US20080009534A1, “S[…] DERIVATIVES USEFUL AS AN[…] A[…] AND METHOD” (Bristol-Myers Squibb Company, priority 2006, published 2008).

Columns and labels:
human PPARα receptor = biological target: T1, human PPARα receptor (Homo sapiens, UniProt Q07869); experiment: In vitro PPAR agonist functional assay, GAL4-hPPARα-LBD transactivation in HEK293 cells (luciferase); assay type: cell-based; conditions: for EC50: GAL4-hPPARα-LBD in HEK293 cells, half-maximal fold induction; for Emax at 1 µM: HEK293, activity at 1 μM relative to GW2331 at 1 μM, read-out: PPARα % efficacy (intrinsic activity)
T1 construct: transiently transfecting GAL4-hPPARα-LBD or GAL4-hPPARγ-LBD constructs; expressed in transfected cells; host or cells: HEK293 cells stably expressing 5×GAL4RE-Luciferase
T1 sequence (Q07869 239-466 limits assumed): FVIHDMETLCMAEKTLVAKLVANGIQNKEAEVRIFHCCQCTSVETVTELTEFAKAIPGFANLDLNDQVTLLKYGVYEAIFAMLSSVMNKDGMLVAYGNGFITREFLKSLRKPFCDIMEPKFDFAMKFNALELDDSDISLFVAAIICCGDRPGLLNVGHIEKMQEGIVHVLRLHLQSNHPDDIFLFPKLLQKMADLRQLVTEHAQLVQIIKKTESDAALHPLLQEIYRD
Protocol: (§1) In vitro PPAR agonist functional assays were performed by transiently transfecting GAL4-hPPARα-LBD or GAL4-hPPARγ-LBD constructs respectively into HEK293 (human embryonic kidney) cells stably expressing 5×GAL4RE-Luciferase. Data were normalized for efficacy at 1 μM to known agonists (BRL-49653 for hPPARγ and GW-233 1 for hPPARα). Agonist binding results in an increase in luciferase enzyme activity which can be monitored by measuring luminescence upon cell lysing and the addition of luciferin substrate. EC50 values (μM) for PPARα or γ agonist activity were calculated as the concentration of the test ligand (μM) required for the half-maximal fold induction of HEK293 cells. The “intrinsic activity” of a test ligand is defined as its activity at 1 μM (expressed as a percentage) relative to the activity of the primary standards (GW2331 for PPARα and BRL-49653/rosiglitazone for PPARγ respectively, both tested at 1 μM). […] The ratios of the PPARα:PPARγ EC50 values of compounds of formula I are between 1:2 and 2:1 in this functional assay.

human PPARγ receptor = biological target: T2, human PPARγ receptor (Homo sapiens, UniProt P37231); experiment: In vitro PPAR agonist functional assay, GAL4-hPPARγ-LBD transactivation in HEK293 cells (luciferase); assay type: cell-based; conditions: for EC50: GAL4-hPPARγ-LBD in HEK293 cells, half-maximal fold induction; for Emax at 1 µM: HEK293, activity at 1 μM relative to BRL-49653/rosiglitazone at 1 μM, read-out: PPARγ % efficacy (intrinsic activity)
T2 construct: transiently transfecting GAL4-hPPARα-LBD or GAL4-hPPARγ-LBD constructs; expressed in transfected cells; host or cells: HEK293 cells stably expressing 5×GAL4RE-Luciferase
T2 sequence (P37231 238-503 limits assumed): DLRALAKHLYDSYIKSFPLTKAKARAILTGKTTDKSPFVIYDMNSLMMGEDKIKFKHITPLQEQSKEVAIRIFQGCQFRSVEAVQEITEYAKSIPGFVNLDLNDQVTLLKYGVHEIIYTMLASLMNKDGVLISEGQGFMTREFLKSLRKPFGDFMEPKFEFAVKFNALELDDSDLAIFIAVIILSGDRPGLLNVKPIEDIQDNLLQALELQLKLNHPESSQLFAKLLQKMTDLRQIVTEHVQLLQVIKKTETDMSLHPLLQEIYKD
Protocol: as §1

db/db mice = experiment: db/db mouse model, plasma glucose and triglycerides after 14 days of oral dosing; assay type: in vivo; conditions: female db/db mice, 10 mg/kg orally once daily for 14 days, fasted plasma on day 15
Protocol: 8 week old female db/db mice were dosed orally once daily for 14 days at 10 mg/kg with the Example 1a-1c compounds using a vehicle comprised of 5% 1-methyl-pyrrolidinone, 20% polyethylene glycol (PEG400) and 75% 20 mM dibasic sodium phosphate. Plasma samples were obtained from mice fasted overnight (18 hours after last administration of compound) on day 15. The plasma glucose and triglycerides levels were determined and the percentage reductions in both parameters of drug-treated animal relative to vehicle-treated animals are shown in the table below.
It is known by one skilled in the art that the compounds of the present invention normalize plasma glucose levels and decrease plasma triglycerides at doses ≧10 mg/kg in rodent models of type 2 diabetes (e.g. the db/db mouse). The typical administration of said compounds is expected to be between 0.1 to 2,000 mg/day in the clinical setting, and is preferably between 0.5 to 100 mg/day. (Reference for db/db mouse as an in vivo rodent model for antidiabetic efficacy: T. Harrity et al, Diabetes, 2006, 55, 240-248).

SMILES | EC50 (human PPARα receptor) [nM] | Emax at 1 µM (human PPARα receptor) [%] | EC50 (human PPARγ receptor) [nM] | Emax at 1 µM (human PPARγ receptor) [%] | % Reduction in Plasma Glucose vs Vehicle-control group (db/db mice) [%] | % Reduction in Plasma Triglycerides vs Vehicle-control group (db/db mice) [%] | melting point [°C]
Cc1ccc(OC(=O)N(CC(=O)O)[C@@H](C)c2ccc(OCc3nc(-c4ccccc4)oc3C)cc2)cc1F [Compound 1a] | 6 ± 1 | 92 | 3 ± 1 | 128 | −45 | −45 | 152.6
Cc1cc(OC(=O)N(CC(=O)O)[C@@H](C)c2ccc(OCc3nc(-c4ccccc4)oc3C)cc2)ccc1F [Compound 1b] | 8 ± 2 | 95 | 4 ± 2 | 126 | −34 | −50 | –
COc1cccc(OC(=O)N(CC(=O)O)[C@@H](C)c2ccc(OCc3nc(-c4ccc(C)cc4)oc3C)cc2)c1 [Compound 1c] | 6 ± 2 | 82 | 5 ± 2 | 124 | −34 | −61 | –
